# In US7112562B2 (Diatos, S.A., priority 2001, dated 2006):
# System: Caco-2 cell monolayers
# Experiment: Trans-epithelial transport of D-[14C]-mannitol and L-[3H]-proline in presence of DPV
# Assay type: cell-based
# Conditions: 30 μg/ml
# Experimental: Trans-epithelial transport experiments were carried out.
sequence,measurement,setting,value
SSRRARRSPRHLGSG (listed as Homo sapiens) [DPV10],effect on amounts of D-[14C]-mannitol and L-[3H]-proline associated with the cells at the end of the experiment,"Caco-2, 8 hours, FIG. 4",did not affect
same,effect on transport of D-[14C]-mannitol or L-[3H]-proline,"Caco-2, FIG. 3",did not affect
